Assays:
Assay type in all cases: biochemical
adenosine A1 receptor = adenosine A1 receptor (Homo sapiens (Human), UniProt P30542); assay: Adenosine receptor activity assay (Table 1), A1 cAMP
Experimental: (§1) Table 1. Compounds (e.g., Adenosine Receptor modulators) and activity assay results. The legend is as follows: A=<10 nM; B=10-50 nM; C=50-100 nM; D=100-500; and E=>500 nM. The ratio corresponds to the A2A activity to the A2B activity; or A2A/A2B.

adenosine A2A receptor = adenosine A2A receptor (Homo sapiens (Human), UniProt P29274); assay: Adenosine receptor activity assay (Table 1), A2A activity; conditions: read-out: Ave A2A cAMP IC50
Sequence of adenosine A2A receptor (P29274 whole entry): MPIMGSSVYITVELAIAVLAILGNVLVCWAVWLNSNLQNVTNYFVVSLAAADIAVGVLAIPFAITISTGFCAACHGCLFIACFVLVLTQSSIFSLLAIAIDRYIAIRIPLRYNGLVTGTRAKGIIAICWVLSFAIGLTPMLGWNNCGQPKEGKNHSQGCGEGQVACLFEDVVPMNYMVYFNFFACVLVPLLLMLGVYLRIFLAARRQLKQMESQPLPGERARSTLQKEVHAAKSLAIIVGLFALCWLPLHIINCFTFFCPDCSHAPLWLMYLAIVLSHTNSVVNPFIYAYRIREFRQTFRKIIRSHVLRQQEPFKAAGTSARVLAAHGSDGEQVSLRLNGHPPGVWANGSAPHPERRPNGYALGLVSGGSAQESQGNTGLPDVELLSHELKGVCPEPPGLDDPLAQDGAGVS

adenosine A3 receptor = adenosine A3 receptor (Homo sapiens (Human), UniProt P0DMS8); assay: Adenosine receptor activity assay (Table 1), A3 cAMP
Sequence of adenosine A3 receptor (P0DMS8 whole entry): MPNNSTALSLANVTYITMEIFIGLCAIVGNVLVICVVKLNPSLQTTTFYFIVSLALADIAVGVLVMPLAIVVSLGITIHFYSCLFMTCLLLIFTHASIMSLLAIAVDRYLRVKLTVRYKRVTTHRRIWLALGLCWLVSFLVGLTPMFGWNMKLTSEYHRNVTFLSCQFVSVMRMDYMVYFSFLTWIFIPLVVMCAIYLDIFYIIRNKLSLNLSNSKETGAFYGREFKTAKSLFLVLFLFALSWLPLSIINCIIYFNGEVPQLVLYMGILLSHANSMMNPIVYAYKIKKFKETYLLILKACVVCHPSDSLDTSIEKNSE
Experimental: as §1

adenosine A2B receptor = adenosine A2B receptor (Homo sapiens (Human), UniProt P29275); assay: Adenosine receptor activity assay (Table 1), A2B activity; conditions: for Ratio: A2A activity to the A2B activity, A2A/A2B; for IC50: read-out: Ave A2B cAMP IC50
Sequence of adenosine A2B receptor (P29275 whole entry): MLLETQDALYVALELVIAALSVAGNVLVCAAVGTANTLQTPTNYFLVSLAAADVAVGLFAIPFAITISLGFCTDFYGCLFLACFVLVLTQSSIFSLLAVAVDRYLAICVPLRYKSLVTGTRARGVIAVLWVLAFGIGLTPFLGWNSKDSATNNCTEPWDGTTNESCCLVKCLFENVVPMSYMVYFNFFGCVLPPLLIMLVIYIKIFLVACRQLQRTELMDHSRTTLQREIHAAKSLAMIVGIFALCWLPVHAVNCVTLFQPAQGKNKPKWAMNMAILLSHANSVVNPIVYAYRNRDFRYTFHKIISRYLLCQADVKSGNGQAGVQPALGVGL

Sequence of adenosine A1 receptor (P30542 whole entry): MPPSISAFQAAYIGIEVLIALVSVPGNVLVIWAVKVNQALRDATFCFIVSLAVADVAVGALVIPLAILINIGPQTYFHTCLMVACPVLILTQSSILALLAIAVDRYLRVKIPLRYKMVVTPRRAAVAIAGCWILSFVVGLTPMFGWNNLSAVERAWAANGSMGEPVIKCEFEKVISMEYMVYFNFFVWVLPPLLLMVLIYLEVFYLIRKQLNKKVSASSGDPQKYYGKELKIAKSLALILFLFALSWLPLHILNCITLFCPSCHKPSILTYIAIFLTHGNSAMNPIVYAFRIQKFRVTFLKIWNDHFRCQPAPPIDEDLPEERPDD

Row | SMILES | IC50 (adenosine A1 receptor) | IC50 (adenosine A2A receptor) | IC50 (adenosine A3 receptor) | Ratio (adenosine A2B receptor) | IC50 (adenosine A2B receptor)
1 | Cc1cc2nc(N[C@@H](C)c3cncc(F)c3)nc(C(=O)N3CC(NC(=O)C4CCC4)C3)c2s1 [Example Z542, (S)—N-(1-(2-((1-(5-Fluoropyridin-3-yl)ethyl)amino)-6-methylthieno[3,2-d]pyrimidine-4-carbonyl)azetidin-3-yl)cyclobutanecarboxamide] | > 500 nM | 10 to 50 nM | 50 to 100 nM | 1.45 | 10 to 50 nM
2 | COC[C@@H]1CCN(C(=O)c2nc(N[C@@H](C)c3ccccn3)nc3cc(C)sc23)C1 [Example Z467, ((R)-3-(Methoxymethyl)pyrrolidin-1-yl)(6-methyl-2-(((S)-1-(pyridin-2-yl)ethyl)amino)thieno[3,2-d]pyrimidin-4-yl)methanone] | > 500 nM | 100 to 500 nM | 50 to 100 nM | 4.90 | 10 to 50 nM
3 | Cc1cc2nc(N[C@@H](C)c3cncc(F)c3)nc(C(=O)N3CC(NC(=O)C4CC4)C3)c2s1 [Example Z522, (S)—N-(1-(2-((1-(5-Fluoropyridin-3-yl)ethyl)amino)-6-methylthieno[3,2-d]pyrimidine-4-carbonyl)azetidin-3-yl)cyclopropanecarboxamide] | > 500 nM | 10 to 50 nM | 100 to 500 nM | 1.58 | < 10 nM
4 | Cc1cc2nc(N[C@@H](C)c3cncc(F)c3)nc(C(=O)N3CC(N(C)C(=O)CC(C)(C)C)C3)c2s1 [Example Z508, (S)—N-(1-(2-((1-(5-Fluoropyridin-3-yl)ethyl)amino)-6-methylthieno[3,2-d]pyrimidine-4-carbonyl)azetidin-3-yl)-N,3,3-trimethylbutanamide] | > 500 nM | 10 to 50 nM | > 500 nM | 1.06 | 10 to 50 nM
5 | Cc1cc2nc(N[C@@H](C)c3cncc(F)c3)nc(C(=O)N3CC(CO)C3)c2s1 [Example Z494, (S)-(2-((1-(5-Fluoropyridin-3-yl)ethyl)amino)-6-methylthieno[3,2-d]pyrimidin-4-yl)(3-(hydroxymethyl)azetidin-1-yl)methanone] | > 500 nM | 100 to 500 nM | > 500 nM | 146.92 | < 10 nM
6 | C[C@H](Nc1nc(C(=O)NCCc2cccc(O)c2)c2sccc2n1)c1ccccn1 [Example Z428, (S)—N-(3-Hydroxyphenethyl)-2-((1-(pyridin-2-yl)ethyl)amino)thieno[3,2-d]pyrimidine-4-carboxamide] | > 500 nM | 100 to 500 nM | > 500 nM | 10.94 | 10 to 50 nM
7 | COC1(C)CN(C(=O)c2nc(N[C@@H](C)c3ccccn3)nc3cc(C)sc23)C1 [Example Z483, (S)-(3-Methoxy-3-methylazetidin-1-yl)(6-methyl-2-((1-(pyridin-2-yl)ethyl)amino)thieno[3,2-d]pyrimidin-4-yl)methanone] | > 500 nM | 100 to 500 nM | > 500 nM | 30.60 | 10 to 50 nM
8 | Cc1cc2nc(N[C@@H](C)c3cncc(F)c3)nc(C(=O)N3CC(CNC(=O)OC(C)(C)C)C3)c2s1 [Example Z475, tert-Butyl (S)-((1-(2-((1-(5-fluoropyridin-3-yl)ethyl)amino)-6-methylthieno[3,2-d]pyrimidine-4-carbonyl)azetidin-3-yl)methyl)carbamate] | > 500 nM | 100 to 500 nM | > 500 nM | 7.45 | 10 to 50 nM
9 | Cc1cc2nc(N[C@@H](C)c3ccccn3)nc(C(=O)N3CC(CN)C3)c2s1 [Example Z479, (S)-(3-(Aminomethyl)azetidin-1-yl)(6-methyl-2-((1-(pyridin-2-yl)ethyl)amino)thieno[3,2-d]pyrimidin-4-yl)methanone] | > 500 nM | > 500 nM | > 500 nM | 96.36 | 10 to 50 nM
10 | Cc1cc2nc(N[C@@H](C)c3cncc(F)c3)nc(C(=O)N3CC(NC(=O)C4CCCO4)C3)c2s1 (stereo partly drawn) [Example Z541, N-(1-(2-(((S)-1-(5-Fluoropyridin-3-yl)ethyl)amino)-6-methylthieno[3,2-d]pyrimidine-4-carbonyl)azetidin-3-yl)tetrahydrofuran-2-carboxamide] | 100 to 500 nM | 10 to 50 nM | 100 to 500 nM | 1.64 | 10 to 50 nM
11 | CC1CCN1C(=O)c1nc(N[C@@H](C)c2cncc(F)c2)nc2ccsc12 (stereo partly drawn) [Example Z524, (2-(((S)-1-(5-Fluoropyridin-3-yl)ethyl)amino)thieno[3,2-d]pyrimidin-4-yl)(2-methylazetidin-1-yl)methanone] | > 500 nM | 50 to 100 nM | > 500 nM | 11.94 | < 10 nM

Continued, values first:

Row | IC50 (adenosine A1 receptor) | IC50 (adenosine A2A receptor) | IC50 (adenosine A3 receptor) | Ratio (adenosine A2B receptor) | IC50 (adenosine A2B receptor) | SMILES
12 | > 500 nM | > 500 nM | > 500 nM | 127.97 | 10 to 50 nM | Cc1cc2nc(N[C@@H](C)c3cncc(F)c3)nc(C(=O)NCCC3CCN(C)CC3)c2s1 [Example Z562, (S)-2-((1-(5-Fluoropyridin-3-yl)ethyl)amino)-6-methyl-N-(2-(1-methylpiperidin-4-yl)ethyl)thieno[3,2-d]pyrimidine-4-carboxamide]
13 | > 500 nM | 50 to 100 nM | > 500 nM | 3.25 | 10 to 50 nM | Cc1cc2nc(N[C@@H](C)c3cncc(F)c3)nc(C(=O)N3CCN(C(=O)NC(C)C)C3)c2s1 [Example Z593, (S)-3-(2-((1-(5-Fluoropyridin-3-yl)ethyl)amino)-6-methylthieno[3,2-d]pyrimidine-4-carbonyl)-N-isopropylimidazolidine-1-carboxamide]
14 | > 500 nM | 10 to 50 nM | > 500 nM | 1.92 | 10 to 50 nM | C[C@H](Nc1nc(C(=O)N2CC(NC(=O)CC(C)(C)C)C2)c2sccc2n1)c1cncc(F)c1 [Example Z557, (S)—N-(1-(2-((1-(5-Fluoropyridin-3-yl)ethyl)amino)thieno[3,2-d]pyrimidine-4-carbonyl)azetidin-3-yl)-3,3-dimethylbutanamide]
15 | > 500 nM | 100 to 500 nM | > 500 nM | 3.44 | 10 to 50 nM | Cc1cc2nc(N[C@@H](C)c3cncc(F)c3)nc(C(=O)N3CC(C(=O)OC(C)(C)C)C3)c2s1 [Example Z573, tert-Butyl (S)-1-(2-((1-(5-fluoropyridin-3-yl)ethyl)amino)-6-methylthieno[3,2-d]pyrimidine-4-carbonyl)azetidine-3-carboxylate]
16 | > 500 nM | 10 to 50 nM | 100 to 500 nM | 0.68 | 10 to 50 nM | Cc1cc2nc(N[C@@H](C)c3cncc(F)c3)nc(C(=O)N3CC(NC(=O)[C@@H]4CCOC4)C3)c2s1 [Example Z598, (R)—N-(1-(2-(((S)-1-(5-Fluoropyridin-3-yl)ethyl)amino)-6-methylthieno[3,2-d]pyrimidine-4-carbonyl)azetidin-3-yl)tetrahydrofuran-3-carboxamide]
17 | > 500 nM | < 10 nM | 100 to 500 nM | 0.26 | 10 to 50 nM | Cc1cc2nc(N[C@@H](C)c3cncc(F)c3)nc(C(=O)N3CC(NC(=O)C(C)C)C3)c2s1 [Example Z588, (S)—N-(1-(2-((1-(5-Fluoropyridin-3-yl)ethyl)amino)-6-methylthieno[3,2-d]pyrimidine-4-carbonyl)azetidin-3-yl)isobutyramide]

Source: patent US11254686B1 (Corvus Pharmaceuticals, Inc., priority 2017, dated 2022)
